The values that follow come from ChEMBL document CHEMBL5226379, “Hypouricemic Actions of the Pericarp of Mangosteen in Vitro and in Vivo” (J Nat Prod, 2023).

Data set [1] relates to Rattus norvegicus. In words: Anti-hyperuricemic activity against potassium oxonate-induced hyperuricemic Sprague-Dawley rat model assessed as clearance of urate measured per body surface area of 0.0311 m2 at 4 mg/kg, po pre-administered via gavage twice daily for 5 times followed by potassium oxonate injection for 1 hrs prior to last dose and measured after 3 hrs. It is filed as functional. The following applies: time 123 hrs.

Data set [2] relates to Mus musculus. In words: Anti-hyperuricemic activity against uric acid-induced hyperuricemic Kunming mouse model assessed as decrease in URAT1 protein level in kidney at 2 to 8 mg/kg, pre-administered with uric acid for 3.5 days followed by compound administration via gavage twice a day for seven times by ELISA analysis. It is filed as functional, organism-based. To be noted: dose 2-8 mg/kg, time 7.0 day. In general terms: ELISA stands for enzyme-linked immunosorbent assay.

Data set [3] relates to Rattus norvegicus. In words: Anti-hyperuricemic activity against potassium oxonate-induced hyperuricemic Sprague-Dawley rat model assessed as fractional excretion of urate at 1 mg/kg, po pre-administered via gavage twice daily for 5 times followed by potassium oxonate injection for 1 hrs prior to last dose and measured after 3 hrs relative to control. The following applies: time 123 hrs. It is filed as functional.

The subject of data set [4] is Mus musculus. As to the kind of experiment: Hypouricemic activity in potassium oxonate-induced hyperuricemic Kunming mouse model assessed as decrease in serum uric acid level at 4 mg/kg, IG pre-administered with potassium oxonate for one hour followed by compound treatment and measured after 2 hrs by phosphotungstic acid method relative to control. It is filed as functional. On the set-up: scale not given: the % may be the effect or the level left.

Data set [5] deals with Rattus norvegicus. As to the kind of experiment: Anti-hyperuricemic activity against potassium oxonate-induced hyperuricemic Sprague-Dawley rat model assessed as urinary creatinine level at 1 mg/kg, po pre-administered via gavage twice daily for 5 times followed by potassium oxonate injection for 1 hrs prior to last dose and measured after 3 hrs. It is filed as functional. To be noted: time 123 hrs.

The subject of data set [6] is Rattus norvegicus. As to the kind of experiment: Anti-hyperuricemic activity against potassium oxonate-induced hyperuricemic Sprague-Dawley rat model assessed as clearance of creatinine measured per body surface area of 0.0311 m2 at 1 mg/kg, po pre-administered via gavage twice daily for 5 times followed by potassium oxonate injection for 1 hrs prior to last dose and measured after 3 hrs. It is filed as functional. The following applies: time 123 hrs.

The test system of data set [7] is Mus musculus. As to the kind of experiment: Hypouricemic activity in potassium oxonate-induced hyperuricemic Kunming mouse model assessed as decrease in serum uric acid level at 5 mg/kg, IG pre-administered via gavage twice daily for 5 times followed by potassium oxonate injection for 1 hrs prior to last dose by phosphotungstic acid method. The following applies: time 5.0 day. It is filed as functional.

For data set [8], the system named is Rattus norvegicus. In words: Anti-hyperuricemic activity against potassium oxonate-induced hyperuricemic Sprague-Dawley rat model assessed as serum urea nitrogen level at 4 mg/kg, po pre-administered via gavage twice daily for 5 times followed by potassium oxonate injection for 1 hrs prior to last dose and measured after 3 hrs. It is filed as functional. To be noted: time 123 hrs.

Data set [9] relates to Rattus norvegicus. As to the kind of experiment: Anti-hyperuricemic activity against potassium oxonate-induced hyperuricemic Sprague-Dawley rat model assessed as excretion of urate per volume of glomerular filtration measured per body surface area of 0.0311 m2 at 1 mg/kg, po pre-administered via gavage twice daily for 5 times followed by potassium oxonate injection for 1 hrs prior to last dose and measured after 3 hrs. It is filed as functional. The following applies: time 123 hrs.

Data set [10] relates to Mus musculus. In words: Anti-hyperuricemic activity against uric acid-induced hyperuricemic Kunming mouse model assessed as decrease in GLUT9 protein level in kidney at 2 to 8 mg/kg, pre-administered with uric acid for 3.5 days followed by compound administration via gavage twice a day for seven times by ELISA analysis. It is filed as functional, organism-based. To be noted: dose 2-8 mg/kg, time 7.0 day.

The species entered for data set [11] is Homo sapiens. In words: Inhibition of uricase (unknown origin) using uric acid as substrate at 112.5 mg/L preincubated with compounds for 15 mins followed by uric acid addition.
In data set [12] the test system is Rattus norvegicus. As to the kind of experiment: Anti-hyperuricemic activity against potassium oxonate-induced hyperuricemic Sprague-Dawley rat model assessed as serum creatinine level at 2 mg/kg, po pre-administered via gavage twice daily for 5 times followed by potassium oxonate injection for 1 hrs prior to last dose and measured after 3 hrs. It is filed as functional. To be noted: time 123 hrs.

For data set [13], the species on record is Homo sapiens. As to the kind of experiment: Inhibition of uricase (unknown origin) using uric acid as substrate at 37.5 mg/L preincubated with compounds for 15 mins followed by uric acid addition.
The target of data set [14] is T1, Solute carrier family 22 member 12 (Homo sapiens, UniProt Q96S37).
T1 sequence (Q96S37 whole entry): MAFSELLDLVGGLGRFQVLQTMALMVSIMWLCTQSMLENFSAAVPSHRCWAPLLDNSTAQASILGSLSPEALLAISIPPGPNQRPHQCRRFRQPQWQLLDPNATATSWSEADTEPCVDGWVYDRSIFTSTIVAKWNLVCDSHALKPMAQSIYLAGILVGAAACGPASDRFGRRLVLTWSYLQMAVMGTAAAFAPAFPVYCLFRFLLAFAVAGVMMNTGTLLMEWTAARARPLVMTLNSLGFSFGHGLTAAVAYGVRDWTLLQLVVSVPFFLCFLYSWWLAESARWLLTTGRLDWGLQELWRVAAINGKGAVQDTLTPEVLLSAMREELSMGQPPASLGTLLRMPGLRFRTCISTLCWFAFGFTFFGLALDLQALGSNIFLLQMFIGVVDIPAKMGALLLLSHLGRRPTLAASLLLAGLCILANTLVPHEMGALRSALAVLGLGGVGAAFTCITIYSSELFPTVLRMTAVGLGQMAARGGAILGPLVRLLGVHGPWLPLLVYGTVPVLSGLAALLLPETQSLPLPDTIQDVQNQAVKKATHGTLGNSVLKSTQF
In words: Inhibition of human URAT1-mediated [8-14C]uric acid uptake expressed in HEK293 cells using [8-14C]uric acid as substrate by liquid scintillation counter analysis. It is filed as cell-based.

The subject of data set [15] is Rattus norvegicus. In words: Anti-hyperuricemic activity against potassium oxonate-induced hyperuricemic Sprague-Dawley rat model assessed as serum creatinine level at 4 mg/kg, po pre-administered via gavage twice daily for 5 times followed by potassium oxonate injection for 1 hrs prior to last dose and measured after 3 hrs. The following applies: time 123 hrs. It is filed as functional.

The subject of data set [16] is Rattus norvegicus. In words: Anti-hyperuricemic activity against potassium oxonate-induced hyperuricemic Sprague-Dawley rat model assessed as urine volume at 1 mg/kg, po pre-administered via gavage twice daily for 5 times followed by potassium oxonate injection for 1 hrs prior to last dose and measured after 3 hrs. It is filed as functional. The following applies: time 123 hrs.

Data set [17] deals with Rattus norvegicus. As to the kind of experiment: Anti-hyperuricemic activity against potassium oxonate-induced hyperuricemic Sprague-Dawley rat model assessed as excretion of urate per volume of glomerular filtration measured per body surface area of 0.0311 m2 at 2 mg/kg, po pre-administered via gavage twice daily for 5 times followed by potassium oxonate injection for 1 hrs prior to last dose and measured after 3 hrs. It is filed as functional. To be noted: time 123 hrs.

Data set [18] deals with Rattus norvegicus. In words: Anti-hyperuricemic activity against potassium oxonate-induced hyperuricemic Sprague-Dawley rat model assessed as ratio of urinary urate to urinary creatinine at 4 mg/kg, po pre-administered via gavage twice daily for 5 times followed by potassium oxonate injection for 1 hrs prior to last dose and measured after 3 hrs. The following applies: time 123 hrs. It is filed as functional.

Data set [19] in a line: Acute toxicity in mouse assessed as change in body weight at 50 g/Kg, IG measured for 14 days. To be noted: in vivo, po, 50000 mg/kg, 336 h, time 14 day.
In data set [20] the test system is Rattus norvegicus. In words: Anti-hyperuricemic activity against potassium oxonate-induced hyperuricemic Sprague-Dawley rat model assessed as urinary urate at 2 mg/kg, po pre-administered via gavage twice daily for 5 times followed by potassium oxonate injection for 1 hrs prior to last dose and measured after 3 hrs. It is filed as functional. To be noted: time 123 hrs.

Data set [21] concerns Rattus norvegicus. As to the kind of experiment: Anti-hyperuricemic activity against potassium oxonate-induced hyperuricemic Sprague-Dawley rat model assessed as serum urea nitrogen level at 2 mg/kg, po pre-administered via gavage twice daily for 5 times followed by potassium oxonate injection for 1 hrs prior to last dose and measured after 3 hrs. It is filed as functional. To be noted: time 123 hrs.

Data set [22] concerns Rattus norvegicus. In words: Anti-hyperuricemic activity against potassium oxonate-induced hyperuricemic Sprague-Dawley rat model assessed as increase in urinary urate level at 2 mg/kg, po pre-administered via gavage twice daily for 5 times followed by potassium oxonate injection for 1 hrs prior to last dose and measured after 3 hrs relative to control. It is filed as functional. The following applies: time 123 hrs.

A short description of data set [23]: Toxicity in Kunming mouse assessed as decrease in serum uric acid level upto 250 mg/kg. It is filed as organism-based. The following applies: in vivo.
Data set [24] can be described thus: Acute toxicity in mouse assessed as mortality at 50 g/Kg, IG measured for 14 days. To be noted: in vivo, po, 50000 mg/kg, 336 h, time 14 day.

Active and inactive are the calls of the source. The rule behind the calls is not given here.

In general, inhibition refers to the drop in the measured response relative to a control, in per cent. Broadly, the IC50 is the concentration that gives 50% inhibition. On to `COc1c(O)cc2oc3cc(O)c(CC=C(C)C)c(O)c3c(=O)c2c1CC=C(C)C` [MANGOSTIN], for which the Activity worked out at 14 mL/min in the data set on Rattus norvegicus [1]; 71% with Rattus norvegicus [3]; 63% in the data set with Mus musculus [4]; 0.9 mmol/L in the data set with Rattus norvegicus [5]; 21.4 mL/min in the data set with Rattus norvegicus [6]; 10.1 mmol/L with Rattus norvegicus [8]. For the same molecule, the Activity was 4.9 µmol/L in the data set on Rattus norvegicus [9]; 55.2 µmol/L in the data set on Rattus norvegicus [12]; 55 µmol/L with Rattus norvegicus [15]; 6.8 mL in the data set on Rattus norvegicus [16]; 5.8 µmol/L with Rattus norvegicus [17]; “Non-Toxic” in data set [19]. Moreover, the Activity in the data set with Rattus norvegicus [20] is 465 µmol; with Rattus norvegicus [21] it was 10.9 mmol/L; with Rattus norvegicus [22], 42%; in [23], “Non-Toxic”; in data set [24] it was “Non-Toxic”. In the data set with Mus musculus [2], the outcome was inactive. Further, the outcome in the data set with Mus musculus [7] and in the data set with Mus musculus [10] was Active. Besides, the results for the inhibition in the data set filed under Homo sapiens [11] and in the data set listed under Homo sapiens [13] were 6.3% and 1.4%, respectively. Further, in [14], the IC50 was found to be 58.9 µM. Further, the Ratio in the data set with Rattus norvegicus [18] was found to be 2.9.
